Consider 2 substances from patent publication US8791072B2 (priority 2011, dated 2014).

“And” between values parts separate entries of the source, which are not always exact repeats. Equal entries are not always repeated. Where no end group is shown, it is not given here.

Experiment [1] relates to neuromuscular junctions in orbicularis oculi muscle. Particulars: rabbit, in vivo.
The next experiment concerns superior rectus muscle. The note with it: rabbit, in vivo.
The subject of experiment [2] is neuromuscular junctions in rabbit extraocular muscle. The note with it: in vivo; cited from earlier work.
For another experiment, the system named is neuromuscular junction. The note with it: in vivo; cited from earlier work.

Turning to botulinum toxin A, in experiment [1], the “combined total muscle neuromuscular junction density, orbicularis oculi muscle” value is on record as 5.9±0.43 /mm^2; the “increase of combined total muscle neuromuscular junction density” value is reported as roughly 3 fold; the “neuromuscular junction density, preseptal region” value is 4.4±01 /mm^2 and 2.9±0.4 /mm^2 and 5.23±0.7 /mm^2; the “neuromuscular junction density, pretarsal region” value is 4.0±0.21 /mm^2 and 5.7±0.8 /mm^2. The “preseptal neuromuscular junction density relative to control” value in experiment [1] is “between about two and three times greater than control”. Further, the “muscle force in response to electrical stimulation” value in the experiment on superior rectus muscle is “variable response, with some showing force equal to the saline-treated control muscles”. For the same substance, in experiment [2], the “change in number of neuromuscular junctions in the treated area” value is reported as “doubling of neuromuscular junctions”. Besides, the “return of normal neuromuscular junction activity” value in the experiment on neuromuscular junction is 20%.
As for “corticotropin releasing factor (SEEPPISLDLTFHLLREVLEMARAEQLAQQAHSNRKLMEII; ends and bridges not checked; UniProt P06850 154-194, looked up) [CRF]”, in experiment [1], the “neuromuscular junction density compared to saline control (in words)” value is recorded as “not significantly different from the density in the control orbicularis oculi muscles” and the “neuromuscular junction density, orbicularis oculi muscle” value is 2.39±0.23 /mm^2.
